Source: US7345042B2, “MCH antagonists for the treatment of obesity” (Schering Corporation, priority 2003, dated 2008)

The compounds below were run against T1, MCH receptor (Homo sapiens, UniProt Q99705) (assay: MCH Receptor Binding Assay ([125I]-MCH SPA, membranes from CHO cells expressing the MCH receptor)). Settings: CHO cell membranes, [125I]-MCH, read-out: MCH Receptor Activity (Ki rating).
T1 construct: expressed in transfected cells; host or cells: CHO cells
Description: MCH Receptor Binding Assay:
Membranes from CHO cells expressing the MCH receptor were prepared by lysing cells with 5 mM HEPES for 15 min at 4 C. Cell lysates were centrifuged ([…], 15 min) and the pellet was resuspended in 5 mM HEPES. For each 96-well plate (Microlite, Dynex Technologies), 1 mg of cell membranes were incubated with 10 mg of wheat germ agglutinin SPA beads (Amersham) for 5 min at 4 C in a volume of 10 ml of binding buffer (25 mM HEPES, 10 mM MGCl2, 10 mM NaCl, 5 mM MnCl2, 0.1% BSA). The membrane/bead mixture was centrifuged (1500×g, 3.5 min), the supernatant was aspirated, and the pellet was resuspended in 10 ml binding buffer. The centrifugation, aspiration and resuspension were then repeated. The membrane/bead mixture (100 μl) was then added to 96-well plates containing 50 μl of 500 pM [^125I]-MCH (NEN) and […] of the appropriate concentration of compound (4× the desired final concentration). Nonspecific binding was determined by including 1 μM MCH in the binding reaction. The binding reaction was incubated at room temperature for 2 h. Plates were then analyzed in a TOPCOUNT microplate scintillation counter (Packard). Data was analyzed and Ki values were determined using GraphPad Prim.

T1 sequence (Q99705 whole entry): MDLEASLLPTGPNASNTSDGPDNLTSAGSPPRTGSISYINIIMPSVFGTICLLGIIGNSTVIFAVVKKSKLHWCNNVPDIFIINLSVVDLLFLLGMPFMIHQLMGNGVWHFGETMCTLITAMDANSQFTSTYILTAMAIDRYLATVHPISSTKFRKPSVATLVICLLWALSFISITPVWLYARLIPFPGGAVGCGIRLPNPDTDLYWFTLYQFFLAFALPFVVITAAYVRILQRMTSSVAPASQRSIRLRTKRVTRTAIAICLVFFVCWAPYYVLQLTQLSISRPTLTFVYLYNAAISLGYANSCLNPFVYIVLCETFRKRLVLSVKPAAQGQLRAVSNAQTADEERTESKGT

**Q.** How did the Ki turn out when `CCCOc1ccsc1C(=O)N1CCC(N2CCN([C@@H](C)c3ccc(CCc4ccc5c(c4)OCO5)cc3)[C@H](C)C2)CC1` [Example 1] was run?
**A.** The Ki was 10 to 15 nM.

**Q.** For `CCOc1ccsc1C(=O)N1CCC(N2CCN([C@@H](C)c3ccc(-c4cc(Cl)cc(Cl)c4)cc3)[C@H](C)C2)CC1` [Example 2], which Ki is on record?
**A.** The Ki was 10 to 15 nM.

**Q.** Which Ki does the source give for `CCCOc1ccsc1C(=O)N1CCC(C)(N2CCN([C@@H](C)c3ccc(-c4cc(Cl)cc(Cl)c4)cc3)[C@H](C)C2)CC1` [Example 3] here?
**A.** Its Ki is 6 to 10 nM.

**Q.** With `CCCOc1ccsc1C(=O)N1CCC(N2CCN([C@@H](C)c3ccc(CCc4ccc(Cl)cc4)cc3)[C@H](C)C2)CC1` [Example 4] as the compound, how does the Ki read?
**A.** Its Ki is 10 to 15 nM.

**Q.** Which Ki does the source give for `C[C@@H]1CN(C2(C)CCN(C(=O)c3sccc3OCC3CC3)CC2)CCN1[C@@H](C)c1ccc(-c2cc(Cl)cc(Cl)c2)cc1` [Example 5] here?
**A.** The Ki was 6 to 10 nM.

**Q.** For `CCCOc1ccsc1C(=O)N1CCC(N2CCN([C@@H](C)c3ccc(-c4cc(Cl)cc(Cl)c4)cc3)[C@H](C)C2)CC1` [Example 6], which Ki is on record?
**A.** The Ki was 6 to 10 nM.

**Q.** For `CCCCOc1ccsc1C(=O)N1CCC(N2CCN([C@@H](C)c3ccc(-c4cc(Cl)cc(Cl)c4)cc3)[C@H](C)C2)CC1` [Example 7], which Ki is on record?
**A.** The Ki was 10 to 15 nM.

**Q.** With `CCCCOc1ccsc1C(=O)N1CCC(N2CCN([C@@H](C)c3ccc(-c4cc(Cl)cc(Cl)c4)cc3)[C@H](C)C2)CC1` [Example 8] as the compound, how does the Ki read?
**A.** The Ki was 6 to 10 nM.

**Q.** For `CCCOc1ccsc1C(=O)N1CCC(N2CCN([C@@H](C)c3ccc(-c4ccc(F)c(Cl)c4)cc3)[C@H](C)C2)CC1` [Example 9], which Ki is on record?
**A.** The Ki was 10 to 15 nM.

**Q.** How did the Ki turn out when `CCOc1ccsc1C(=O)N1CCC(N2CCN([C@@H](C)c3ccc(-c4ccc(Cl)s4)cc3)[C@H](C)C2)CC1` [Example 10] was run?
**A.** The Ki was over 15 nM.

**Q.** How did the Ki turn out when `C[C@@H]1CN(C2CCN(C(=O)c3sccc3OCC3CC3)CC2)C[C@@H](C)N1Cc1ccc(-c2cc(Cl)cc(Cl)c2)cc1` [Example 11] was run?
**A.** Its Ki is over 15 nM.

**Q.** Which Ki does the source give for `C[C@@H]1CN(C2CCN(C(=O)c3sccc3OCC3CC3)CC2)CCN1[C@@H](C)c1ccc(-c2cc(Cl)cc(Cl)c2)cc1` [Example 12] here?
**A.** Its Ki is 6 to 10 nM.

**Q.** `CCOc1ccsc1C(=O)N1CCC(N2CCN([C@@H](C)c3ccc(CCc4ccc(C(F)(F)F)cc4)cc3)[C@H](C)C2)CC1` [Example 13] was tested. Which Ki did it give?
**A.** The Ki was 6 to 10 nM.

**Q.** With `CCCOc1ccsc1C(=O)N1CCC(N2CCN([C@@H](C)c3ccc(CCc4ccc(C(F)(F)F)cc4)cc3)[C@H](C)C2)CC1` [Example 14] as the compound, how does the Ki read?
**A.** The Ki was 6 to 10 nM.

**Q.** How did the Ki turn out when `C[C@@H]1CN(C2(C)CCN(C(=O)c3sccc3OCC3CC3)CC2)CCN1[C@@H](C)c1ccc(-c2ccncc2)cc1` [Example 15] was run?
**A.** Its Ki is 6 to 10 nM.

**Q.** How did the Ki turn out when `CCOc1ccsc1C(=O)N1CCC(N2CCN([C@@H](C)c3ccc(-c4cc(Cl)cc(Cl)c4)cc3)[C@H](C)C2)CC1C` (stereo partly drawn) [Example 16] was run?
**A.** The Ki was 6 to 10 nM.

**Q.** How did the Ki turn out when `CCOc1ccsc1C(=O)N1CCC(N2CCN([C@@H](C)c3ccc(-c4cc(Cl)cc(Cl)c4)cc3)[C@H](C)C2)CC1C` (stereo partly drawn) [Example 17] was run?
**A.** Its Ki is over 15 nM.

**Q.** With `CCOc1ccsc1C(=O)N1CCC(N2C[C@@H](C)N([C@@H](C)c3ccc(-c4cc(Cl)cc(Cl)c4)cc3)[C@H](C)C2)CC1` [Example 18] as the compound, how does the Ki read?
**A.** Its Ki is 10 to 15 nM.

**Q.** `CCCOc1cscc1C(=O)N1CCC(N2CCN([C@@H](C)c3ccc(-c4cc(Cl)cc(Cl)c4)cc3)[C@H](C)C2)CC1` [Example 19] was tested. Which Ki did it give?
**A.** Its Ki is 6 to 10 nM.

Same assay, conditions: unit inferred, read-out: Ki values

**Q.** With `CCOc1ccsc1C(=O)N1CCC(N2CCN([C@@H](C)c3ccc(-c4cc(Cl)cc(Cl)c4)cc3)[C@H](C)C2)CC1C` (stereo partly drawn) [Example 16] as the compound, how does the Ki read?
**A.** Its Ki is 6 nM.

**Q.** `CCCOc1cscc1C(=O)N1CCC(N2CCN([C@@H](C)c3ccc(-c4cc(Cl)cc(Cl)c4)cc3)[C@H](C)C2)CC1` [Example 20] was tested. Which Ki did it give?
**A.** Its Ki is 6 nM.
